The structures appear in SMILES notation.

Data set [1] relates to whole cell soluble lysate of neuronally differentiated PC12 cells. As to the kind of experiment: total ATPase activity in clarified whole cell lysates. In kind it is biochemical. Here is the method: Figure 3 Effects of KUSs on ATPase activities, ATP levels, and acetyl-CoA levels. (a) Inhibition of ATPase activity in clarified whole cell lysates by KUS121, KUS187, and KUS94, but not KUS11. Total ATPase activities in clarified whole cell lysates from differentiated PC12 cells were measured in the absence and presence of KUSs. Relative ATPase activities are shown with values in the absence of KUS (D: DMSO) set at 100%. (b) HeLa cells were cultured in medium with low glucose (0.25 g/l) for 20 hours, with or without KUSs, and ATP levels were measured with luciferase assays. (c) HeLa cells were cultured in medium with low glucose (0.25 g/l) for 20 hours, with or without KUSs, and acetyl-CoA levels were measured. * P < 0.05, ** P < 0.01, *** P < 0.001 vs. DMSO control (Dunnett's test, n = 3).
We measured ATPase activities by modifying the molybdate assay, which was as described previously. In the assay, 1 μg of whole cell soluble lysate of neuronally differentiated PC12 cells, or 500 ng recombinant VCP protein, was incubated in 20 μl of the ATPase assay buffer (20 mM HEPES (pH 7.4), 50 mM KCl, 5 mM MgCl2) with 100 μM [γ-^32P]ATP (18.5 GBq/mmol) (PerkinElmer) at 37°C for 20 min. After incubation, the reaction was quenched by addition of 200 μl of 8% ice-cold trichloroacetic acid solution with 1 mM K2HPO4, and then 50 μl of solution A (3.75% ammonium molybdate, 0.02 M silicotungstic acid in 3 N H2SO4) and 300 μl of n-butyl acetate were added to the reaction. The samples were mixed well and centrifuged at 12,000 × g for 1 min. Then, 200 μl aliquots from the upper organic phases were taken and their radioactivity was determined with a liquid scintillation counter for β-radiation, which determined the amounts of ^32P released.

The test system of data set [2] is C57BL/6 wild-type mice. Briefly: electroretinogram of adult wild-type mice administered KUS. In kind it is in vivo, mouse. Here is the method:
Electroretinogram recording was performed to assess the visual function of rd10 mice at ages of 21, 25, 29, and 33 days. Mice were dark-adapted overnight before anesthetization. Electroretinograms were recorded using a gold loop corneal electrode with a light-emitting diode (Mayo Corp., Inazawa, Japan). A reference electrode was placed in the mouth and a ground electrode was inserted to the anus. Stimuli were produced with a light emitting diode stimulator (Mayo Corp.). The electroretinogram response signals were amplified, digitized at 10 kHz with a band-pass filter of 0.3 to 500 Hz, and analyzed (PowerLab 2/25; AD instruments, New South Wales, Australia). The a- and b-wave amplitudes and a-wave latency of the mixed cone and rod response (ISCEV (International Society for Clinical Electrophysiology of Vision) standard; scotopic 3.0)[34] were analyzed.
Supplementary Figure 6 (a) Time-dependent changes of b-wave amplitude in dark-adapted electroretinograms in non-treated C57BL/6 wild-type mice. b-wave […]
= 0.004. (b, c) a-wave (b) and b-wave (c) amplitude of adult C57BL/6 wild-type mice administered saline or KUS121 for 7 days. […]
amplitudes of a-and b-waves between mice administered saline or KUS121 (a-wave […]
92.9 vs. 420.8 ± 52.6, P = 0.86, t-test). Error bars indicate SD.
Lane 1, 1µM MG132; lane 2, control; lane 3, 5µM DBeQ; lane 4, 10µM DBeQ; lane 5, 15µM DBeQ; lane 6: KUS11; lane 7, KUS31; lane 8, KUS69; lane 9, KUS 94; lane 10, […]
Lane 1, Tm(-); lane 2, control; lane 3, KUS69; lane 4, KUS94; lane 5, KUS121; lane 6, KUS187; lane 7, Tm(-); lane 8, control; lane 9, 0.1mM ATP; lane 10, 0.3mM ATP; lane 11, 1mM ATP; lane 12, 3mM methylpyruvate; lane 13, 10mM methylpyruvate.

The subject of data set [3] is cellular VCP functions. As to the kind of experiment: immunoblot of ubiquitinated proteins, CHOP (ER stress) and LC3 (autophagy) in cultured cells. In kind it is cell-based. The source says: Figure 1 Structures and characterization of KUSs, novel VCP modulators. (a) Structures and IC50 values of KUS11, KUS31, KUS69, KUS94, KUS121, and KUS187. […] (b) ATPase activity assays of recombinant human […], comparing KUSs and DBeQ. (c) Immunoblot analysis of ubiquitinated proteins, an ER stress marker (CHOP), and an autophagy indicator (LC3), comparing KUSs and DBeQ. As a control, MG132, a proteasome inhibitor, was used for the analysis. Actin served as a loading control. Complete scans of the different blots are presented in Supplementary Fig. 7. (d) Comparison of KUSs and DBeQ for cell death-inducing activities. HeLa cells were treated with 50 μM DBeQ or KUSs for 24 hours. […]

As to `Cc1cc(F)ccc1-c1ccc(/N=N/c2cc(S(=O)(=O)O)c3ccccc3c2N)cn1` [KUS121], the “lowering of total ATPase activity” value in data set [1] (100 nM compound) was “approximately 20%”; in data set [1] (1 μM compound) it was around 40%. Also, the a-wave amplitude in data set [2] (adult C57BL/6 wild-type mice, KUS121 for 7 days, saline 203.5 ± 41.6, P = 0.56, in µV (unit assumed)) was found to be 195.8 ± 30.2. Moreover, the b-wave amplitude in data set [2] (adult C57BL/6 wild-type mice, KUS121 for 7 days, saline 425.8 ± 92.9, P = 0.86, in µV (unit assumed)) amounted to 420.8 ± 52.6. Moreover, the “change in the amplitude of a- and b-waves vs saline” value in data set [2] (adult wild-type mice) is given as “no significant differences”. For the same molecule, the “induction of accumulation of ubiquitinated proteins, ER stress (CHOP), autophagy (LC3)” value in data set [3] was “did not induce any of these phenotypes”.

The record behind these values is paper PMC4122966, “Novel VCP modulators mitigate major pathologies of rd10, a mouse model of retinitis pigmentosa” (Scientific Reports, 2014).
